# Source: patent US9028845B2, “Chimeric immunomodulatory compounds and methods of using the same-IV” (Dynavax Technologies Corporation, priority 2001, dated 2015)
# Test system: human PBMCs
# Assay: Human PBMC cytokine response assay (IFN-γ and IFN-α in cell-free medium by ELISA), with or without cPLGA;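 on IFN-α (pg/ml) mean: 20 µg/mL compound for 24 hours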;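 on IFN-γ (pg/ml) mean: 20 µg/mL compound for 24 hours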
# Type: cell-based
# Details: for IFN-a / IFN-g / IFN-a mean / IFN-g mean: Table 25; for IFN-a mean / IFN-g mean: mean of donors 28250-28253; for immunomodulatory activity (IFN-γ / IFN-α secretion), in words: used alone (no cPLGA)
# [1] = Table 24, mean of donors 28234-28237
# [2] = donor 28250, polynucleotides/spacers at amounts equivalent to the CIC, spacers alone 9 uM
# [3] = mean of donors 110, 112, 119, 120, Table 14
# [4] = donor 28066, 20 ug/ml, 24 h, + PLGA = premixed with 100 μg/ml cPLGA
# [5] = donor 28067, 20 ug/ml, 24 h, + PLGA = premixed with 100 μg/ml cPLGA
# [6] = donor 28068, 20 ug/ml, 24 h, + PLGA = premixed with 100 μg/ml cPLGA
# [7] = mean of Donors 3-4, 20 μg/ml, 24 h
# [8] = mean of donors 28065-28068, 20 ug/ml, 24 h, + PLGA = premixed with 100 μg/ml cPLGA
# [9] = mean of donors 28218-28221, 20 μg/ml, 24 h
substance,measurement,setting,value
5′-TCGACGT-3′-HEG-5′-TCGACGT-3′-HEG-5′-TCGACGT-3′ [Compound C-51],IFN-α induced relative to C-90 (C3 CIC),HEG CIC vs C3 CIC,8 fold
same,IFN-α,"Table 10, donor 28042",112 pg/mL
same,IFN-γ,"Table 10, donor 28042",795 pg/mL
same,IFN-α,"Table 10, donor 28043",245 pg/mL
same,IFN-γ,"Table 10, donor 28043",1349 pg/mL
same,IFN-α,"Table 10, donor 28044",240 pg/mL
same,IFN-γ,"Table 10, donor 28044",1114 pg/mL
same,IFN-α,"Table 10, donor 28045",36 pg/mL
same,IFN-γ,"Table 10, donor 28045",411 pg/mL
same,IFN-α mean,"Table 10, mean of donors",158 pg/mL
same,IFN-γ mean,"Table 10, mean of donors",917 pg/mL
same,IFN-α,"Table 24, donor 28234",16 pg/mL
same,IFN-γ,"Table 24, donor 28234",17 pg/mL
same,IFN-α,"Table 24, donor 28235",77 pg/mL
same,IFN-γ,"Table 24, donor 28235",123 pg/mL
same,IFN-α,"Table 24, donor 28236",352 pg/mL
same,IFN-γ,"Table 24, donor 28236",193 pg/mL
same,IFN-α,"Table 24, donor 28237",3798 pg/mL
same,IFN-γ,"Table 24, donor 28237",1580 pg/mL
same,IFN-α mean,[1],1061 pg/mL
same,IFN-γ mean,[1],478 pg/mL
same,IFN-a,donor 28250,181 pg/mL
same,IFN-g,[2],135 pg/mL
same,IFN-a,donor 28251,246 pg/mL
same,IFN-g,donor 28251,45 pg/mL
same,IFN-a,donor 28252,95 pg/mL
same,IFN-g,donor 28252,164 pg/mL
same,IFN-a,donor 28253,1226 pg/mL
same,IFN-g,donor 28253,167 pg/mL
same,IFN-a mean,,437 pg/mL
same,IFN-g mean,,128 pg/mL
same,IFN-α,"donor 110, Table 14",1408 pg/mL
same,IFN-γ,"donor 110, Table 14",1528 pg/mL
same,IFN-α,"donor 112, Table 14",72 pg/mL
same,IFN-γ,"donor 112, Table 14",240 pg/mL
same,IFN-α,"donor 119, Table 14",2200 pg/mL
same,IFN-γ,"donor 119, Table 14",52 pg/mL
same,IFN-α,"donor 120, Table 14",622 pg/mL
same,IFN-γ,"donor 120, Table 14",40 pg/mL
same,IFN-α (pg/ml) mean,[3],1076 pg/mL
same,IFN-γ (pg/ml) mean,[3],465 pg/mL
same,"IFN-α induction, in words",used alone,generated more IFN-α than CICs containing a 5′-TCGT-3′
same,"IFN-γ induction, in words",used alone,similar
same,"immunomodulatory activity (IFN-γ / IFN-α secretion), in words",,more active than other CG-containing CICs
5′-TCGTCG-3′-HEG-5′-TCGA-3′ [Compound C-40],IFN-α,"Table 10, donor 28042",0 pg/mL
same,IFN-γ,"Table 10, donor 28042",26 pg/mL
same,IFN-α,"Table 10, donor 28043",26 pg/mL
same,IFN-γ,"Table 10, donor 28043",55 pg/mL
same,IFN-α,"Table 10, donor 28044",31 pg/mL
same,IFN-γ,"Table 10, donor 28044",20 pg/mL
same,IFN-α,"Table 10, donor 28045",2 pg/mL
same,IFN-γ,"Table 10, donor 28045",23 pg/mL
same,IFN-α mean,"Table 10, mean of donors",15 pg/mL
same,IFN-γ mean,"Table 10, mean of donors",31 pg/mL
same,IFN-α,"donor 110, Table 14",6 pg/mL
same,IFN-γ,"donor 110, Table 14",180 pg/mL
same,IFN-α,"donor 112, Table 14",198 pg/mL
same,IFN-γ,"donor 112, Table 14",12 pg/mL
same,IFN-α,"donor 119, Table 14",152 pg/mL
same,IFN-γ,"donor 119, Table 14",4 pg/mL
same,IFN-α,"donor 120, Table 14",2 pg/mL
same,IFN-γ,"donor 120, Table 14",20 pg/mL
same,"activity when formulated with cPLGA, in words",formulated with cPLGA,significant activity when formulated with cPLGA
same,IFN-α (pg/ml) mean,[3],90 pg/mL
same,IFN-γ (pg/ml) mean,[3],54 pg/mL
same,"immunomodulatory activity (IFN-γ / IFN-α secretion), in words",,inactive in this experiment
"5′-ACGTTCG-3′ [Compound P-3, reference compound]",IFN-α (pg/ml) Donor 3,"Donor 3, 20 μg/ml, 24 h",0 pg/mL
same,IFN-γ (pg/ml) Donor 3,"Donor 3, 20 μg/ml, 24 h",1 pg/mL
same,IFN-α (pg/ml) Donor 4,"Donor 4, 20 μg/ml, 24 h",32 pg/mL
same,IFN-γ (pg/ml) Donor 4,"Donor 4, 20 μg/ml, 24 h",3 pg/mL
same,IFN-a,donor 28250,16 pg/mL
same,IFN-g,[2],32 pg/mL
same,IFN-a,donor 28251,29 pg/mL
same,IFN-g,donor 28251,21 pg/mL
same,IFN-a,donor 28252,38 pg/mL
same,IFN-g,donor 28252,72 pg/mL
same,IFN-a,donor 28253,31 pg/mL
same,IFN-g,donor 28253,1 pg/mL
same,IFN-a mean,,29 pg/mL
same,IFN-g mean,,31 pg/mL
same,IFN-γ (pg/ml) 28065,"donor 28065 (high background), 20 ug/ml, 24 h, + PLGA = premixed with 100 μg/ml cPLGA, 1000 = outside assay limits",94 pg/mL
same,IFN-α (pg/ml) 28065,"donor 28065, 20 ug/ml, 24 h, + PLGA = premixed with 100 μg/ml cPLGA",0 pg/mL
same,IFN-α (pg/ml) 28066,[4],0 pg/mL
same,IFN-γ (pg/ml) 28066,[4],27 pg/mL
same,IFN-α (pg/ml) 28067,[5],5 pg/mL
same,IFN-γ (pg/ml) 28067,[5],1 pg/mL
same,IFN-α (pg/ml) 28068,[6],0 pg/mL
same,IFN-γ (pg/ml) 28068,[6],0 pg/mL
same,IFN-α (pg/ml) mean,[7],16 pg/mL
same,IFN-γ (pg/ml) mean,[7],2 pg/mL
same,IFN-α (pg/ml) mean,[8],1 pg/mL
same,IFN-γ (pg/ml) mean,[8],31 pg/mL
same,"immunomodulatory activity (IFN-γ / IFN-α secretion), in words",,did not have immunomodulatory activity
"5′-GsGsGsGs-3′-C3-5′-ATCGAT-3′-C3-5′-TGATGCATCA-3′-C3-5′-ATCGAT-3′-C3-5′-GsGsGsGsGsG-3′ (s = phosphorothioate linkages, otherwise linkages are phosphodiester) (TGATGCATCA is SEQ ID NO: 105) (listed as DNA, chemistry not fully specified) [Compound C-87]",IFN-a (pg/ml) 28218,"donor 28218, 20 μg/ml, 24 h",3075 pg/mL
same,IFN-g (pg/ml) 28218,"donor 28218, 20 μg/ml, 24 h",83 pg/mL
same,IFN-a (pg/ml) 28219,"donor 28219, 20 μg/ml, 24 h",32 pg/mL
same,IFN-g (pg/ml) 28219,"donor 28219, 20 μg/ml, 24 h",24 pg/mL
same,IFN-a (pg/ml) 28220,"donor 28220, 20 μg/ml, 24 h",4269 pg/mL
same,IFN-g (pg/ml) 28220,"donor 28220, 20 μg/ml, 24 h",38 pg/mL
same,IFN-a (pg/ml) 28221,"donor 28221, 20 μg/ml, 24 h",265 pg/mL
same,IFN-g (pg/ml) 28221,"donor 28221, 20 μg/ml, 24 h",977 pg/mL
same,IFN-a (pg/ml) mean,[9],1910 pg/mL
same,IFN-g (pg/ml) mean,[9],281 pg/mL
same,"IFN-α induction, in words",used alone,remarkable induction of IFN-α
"(5′-TCGACGT-HEG)2-glycerol-HEG-5′-ACTTAGAGGTTCAGTAGG-3′ (SEQ ID NO: 157) (DNA, all phosphorothioate, methylation of C not given here; Two heptamer DNA arms joined by HEG spacers and glycerol branching to the chain) [Compound C-202]",IFN-α,"Example 59, 0.8 ug/ml, donor 48",830 pg/mL
same,IFN-α,"Example 59, 0.8 ug/ml, donor 177",102 pg/mL
same,IFN-α,"Example 59, 0.8 ug/ml, donor 272",102 pg/mL
same,IFN-α,"Example 59, 0.8 ug/ml, donor 273",102 pg/mL
same,IFN-α mean,"Example 59, 0.8 ug/ml, mean of four donors",284 pg/mL
same,IFN-α,"Example 59, 4 ug/ml, donor 48",2250 pg/mL
same,IFN-α,"Example 59, 4 ug/ml, donor 177",2482 pg/mL
same,IFN-α,"Example 59, 4 ug/ml, donor 272",1222 pg/mL
same,IFN-α,"Example 59, 4 ug/ml, donor 273",215 pg/mL
same,IFN-α mean,"Example 59, 4 ug/ml, mean of four donors",1542 pg/mL
same,IFN-α,"Example 59, 20 ug/ml, donor 48",1901 pg/mL
same,IFN-α,"Example 59, 20 ug/ml, donor 177",2742 pg/mL
same,IFN-α,"Example 59, 20 ug/ml, donor 272",612 pg/mL
same,IFN-α,"Example 59, 20 ug/ml, donor 273",339 pg/mL
same,IFN-α mean,"Example 59, 20 ug/ml, mean of four donors",1399 pg/mL
5′-AGATGAT-3′-HEG-5′-ACGTTCG-3′-HEG-5′-TCGTCGA-3′ [Compound C-60],IFN-α,"Table 13, donor 28156",5 pg/mL
same,IFN-γ,"Table 13, donor 28156",304 pg/mL
same,IFN-α,"Table 13, donor 28157",22 pg/mL
same,IFN-γ,"Table 13, donor 28157",209 pg/mL
same,IFN-α,"Table 13, donor 28158",3 pg/mL
same,IFN-γ,"Table 13, donor 28158",26 pg/mL
same,IFN-α,"Table 13, donor 28159",1 pg/mL
same,IFN-γ,"Table 13, donor 28159",38 pg/mL
same,IFN-α mean,"Table 13, mean of donors",8 pg/mL
same,IFN-γ mean,"Table 13, mean of donors",144 pg/mL
